In patent US9896421B2, “Compound having skin-whitening, anti-oxidizing and PPAR activities and medical use thereof” (Pusan National University Industry-University Cooperation …, priority 2011, dated 2018):

Tests used:
[1] = test system: Mushroom-derived tyrosinase; assay: Tyrosinase inhibitory effect; type: biochemical; conditions: 1 mM L-tyrosin, pH 6.5, 25° C., 30 minutes, OD492; compared with kojic acid (positive control); FIGS. 4 to 6
Procedure: Mushroom-derived tyrosinase was sued as an enzyme source in the present experiment. Tyrosinase activities were assayed according to a slightly-modified conventionally known method (Life Sci., 1999, 65, 241-246). In detail, 20 μl of a mushroom-derived tyrosinase (1000 units) aqueous solution was added to 96-well microplate (Nunc, Denmark) to prepare 200 μl of the total volume of assay mixture containing 1 mM L-tyrosin solution and 50 mM phosphate buffer solution (pH 6.5). The assay mixture was cultured at a temperature of 25° C. for 30 minutes. After the culturing, an amount of the produced DOPA chrome in the reaction mixture was measured by using a microplate reader (Hewlett Packard) at 492 nm (OD492).

[2] = test system: ROS generated by vascular endothelial cells (YPEN-1); assay: In vitro ROS scavenging activity assay (DCFDA) in YPEN-1 vascular endothelial cells; type: cell-based, rat; conditions: YPEN-1 cells pre-treated with 50 μM SIN-1 for 1 hour; DCFDA fluorescence; compared with trolox (positive control); FIGS. 1 to 3
Procedure: YPEN-1 cells (rat prostatic endothelial cell line) was obtained from American type culture collection (ATCC, Manassas, Va., USA), and the cells were cultured by using a dulbecco's modified eagle medium (DMEM, Nissui, Tokyo, Japan) containing 2 mM L-glutamine, […], 2.5 mg/L amphotericin B, and 5% inactivated fetal bovine serum (FBS). Also, the cells were maintained at a temperature of 37° C. in a humid atmosphere-like condition containing 5% CO2 and 95% air. […] The cells were sub-cultured in 100 mm plastic flask (Corning Co., New York, USA) every two days to maintain the cell line.
Since the oil-soluble DCFDA was deacetylated into non-fluorescent DCFH due to esterase or oxidative hydrolysis and the DCFH was oxidized due to activity oxgyen to produce highly-fluorescent 2′,7′-dichlorofluorescein (DCF), the present measurement was performed at an excitation wavelength of 485 nm and an emission wavelength of 530 nm by using a fluorophotometer (GENios, TECAN). Vascular endothelial cells that were pre-treated with 50 μM 3-morpholinosydnonimine hydrochloride (SIN-1) for 1 hour were used as a reactive oxygen generation source.

In the case of `COc1ccc(/C=C2\NC(=O)NC2=O)cc1O` [Compound 29, (Z)-5-(3-hydroxy-4-methoxybenzylidene)imidazolidine-2,4-dione], the tyrosinase inhibitory activities [1] is reported as “better tyrosinase inhibitory activities than a kojic acid” and the melting point is reported as 250.7 to 253.4 °C.
In the case of `COc1cc(/C=C2\NC(=S)NC2=O)ccc1O` [Compound 101, (Z)-5-(4-hydroxy-3-methoxybenzylidene)-2-thioxoimidazolidin-4-one], the “scavenging effects on ROS generated by vascular endothelial cells” value (“scavenging effects on ROS generated” below) [2] is reported as “as high scavenging effects on ROS generated by vascular endothelial cells as trolox”.
For `O=C1C/C(=C\c2ccc(O)cc2O)C(=O)N1` [Compound 38, (E)-3-(2,4-dihydroxybenzylidene)pyrrolidine-2,5-dione], the tyrosinase inhibitory activities [1] was “better tyrosinase inhibitory activities than a kojic acid” and the melting point was greater than 300 °C.
In the case of `O=C1NC(=O)C(=Cc2ccc(O)cc2O)C(=O)N1` [Compound 16, 5-(2,4-dihyroxybenzylidene)pyrimidine-2,4,6(1H,3H,5H)-trione], the tyrosinase inhibitory activities [1] is reported as “better tyrosinase inhibitory activities than a kojic acid”.
With `O=C1NC(=O)/C(=C/c2ccc(O)c(O)c2)N1` [Compound 26, (Z)-5-(3,4-dihydroxybenzylidene)imidazolidine-2,4-dione] the “scavenging effects on ROS generated” value [2] was “as high scavenging effects on ROS generated by vascular endothelial cells as trolox” and the melting point was greater than 300 °C.
In the case of `[H]/N=C1/NC(=O)C(=Cc2ccc(O)c(O)c2)N1C` [Compound 75, (Z)-5-(3,4-dihydroxybenzylidene)-2-imino-1-methylimidazolidin-4-one], the “scavenging effects on ROS generated” value [2] is reported as “as high scavenging effects on ROS generated by vascular endothelial cells as trolox” and the melting point is reported as 293 to 295.3 °C.
For `COc1ccc(/C=C2\SC(=S)NC2=O)cc1O` [Compound 66, (Z)-5-(3-hydroxy-4-methoxybenzylidene)-2-thioxothiazolidin-4-one], the tyrosinase inhibitory activities [1] was “better tyrosinase inhibitory activities than a kojic acid” and the melting point was 210.2 to 212.5 °C.
In the case of `O=C1NC(=S)N/C1=C\c1ccc(O)cc1O` [Compound 100, (Z)-5-(2,4-dihydroxybenzylidene)-2-thioxoimidazolidin-4-one], the “scavenging effects on ROS generated” value [2] is reported as “as high scavenging effects on ROS generated by vascular endothelial cells as trolox” and the melting point is reported as greater than 300 °C.
In the case of `CCOc1cc(/C=C2\NC(=S)NC2=O)ccc1O` [Compound 102, (Z)-5-(3-ethoxy-4-hydroxybenzylidene)-2-thioxoimidazolidin-4-one], the “scavenging effects on ROS generated” value [2] is reported as “as high scavenging effects on ROS generated by vascular endothelial cells as trolox” and the melting point is reported as 175.4 to 177.2 °C.
For `O=C1NC(=O)C(=Cc2ccc(OCc3ccccc3)cc2)C(=O)N1` [Compound 123, 5-(4-(benzyloxy)benzylidene)pyrimidine-2,4,6(1H,3H,5H)-trione], the tyrosinase inhibitory activities [1] was “better tyrosinase inhibitory activities than a kojic acid”.
For `COc1cc(/C=C2\N=C(C)OC2=O)cc(OC)c1OC(C)=O` [Compound 95, (Z)-2,6-dimethoxy-4-((2-methyl-5-oxooxazol-4(5H)-ylidene)methyl)phenyl acetate], the “scavenging effects on ROS generated” value [2] was “as high scavenging effects on ROS generated by vascular endothelial cells as trolox”.
For `COc1ccc(/C=C2\CC(=O)NC2=O)cc1O` [Compound 41, (E)-3-(3-hydroxy-4-methoxybenzylidene)pyrrolidine-2,5-dione], the tyrosinase inhibitory activities [1] was “better tyrosinase inhibitory activities than a kojic acid” and the melting point was 268.7 to 270.3 °C.
In the case of `O=C1NC(=O)/C(=C/c2ccc(O)cc2)S1` [Compound 1, (Z)-5-(4-hydroxybenzylidene)thiazolidine-2,4-dione], the tyrosinase inhibitory activities [1] is reported as “better tyrosinase inhibitory activities than a kojic acid”.
With `O=C1NC(=S)N/C1=C\c1ccc(O)c(O)c1` [Compound 99, (Z)-5-(3,4-dihydroxybenzylidene)-2-thioxoimidazolidin-4-one] the “scavenging effects on ROS generated” value [2] was “as high scavenging effects on ROS generated by vascular endothelial cells as trolox” and the melting point was greater than 300 °C.
In the case of `COc1cc(/C=C2\NC(=S)NC2=O)cc(OC)c1O` [Compound 110, (Z)-5-(4-hydroxy-3,5-dimethoxybenzylidene)-2-thioxoimidazolidin-4-one], the “scavenging effects on ROS generated” value [2] is reported as “as high scavenging effects on ROS generated by vascular endothelial cells as trolox” and the melting point is reported as 240.1 to 242.6 °C.
With `O=C1C/C(=C\c2ccc(O)c(O)c2)C(=O)N1` [Compound 37, (E)-3-(3,4-dihydroxybenzylidene)pyrrolidine-2,5-dione] the “scavenging effects on ROS generated” value [2] was “as high scavenging effects on ROS generated by vascular endothelial cells as trolox” and the melting point was 290.8 to 291.9 °C.
For `O=C1C/C(=C\c2ccc(O)cc2)C(=O)N1` [Compound 36, (E)-3-(4-hydroxybenzylidene)pyrrolidine-2,5-dione], the tyrosinase inhibitory activities [1] was “better tyrosinase inhibitory activities than a kojic acid” and the melting point was greater than 300 °C.
In the case of `[H]/N=C1/NC(=O)C(=Cc2ccc(OC)c(O)c2)S1` [Compound 115, (Z)-5-(3-hydroxy-4-methoxybenzylidene)-2-iminothiazolidin-4-one], the tyrosinase inhibitory activities [1] is reported as “better tyrosinase inhibitory activities than a kojic acid”.
With `COc1ccc(/C=C2\NC(=S)NC2=O)cc1` [Compound 104, (Z)-5-(4-methoxybenzylidene)-2-thioxoimidazolidin-4-one] the melting point was 266.9 to 267.5 °C.
In the case of `COc1ccc(/C=C2\NC(=S)NC2=O)cc1O` [Compound 103, (Z)-5-(3-hydroxy-4-methoxybenzylidene)-2-thioxoimidazolidin-4-one], the tyrosinase inhibitory activities [1] is reported as “better tyrosinase inhibitory activities than a kojic acid” and the melting point is reported as 279.6 to 282.2 °C.
Work on `[H]/N=C1/NC(=O)C(=Cc2ccc(O)c(OC)c2)N1C` [Compound 76, (Z)-5-(4-hydroxy-3-methoxybenzylidene)-2-imino-1-methylimidazolidin-4-one] yielded a melting point of 254.2 to 255.6 °C.
`O=C1NC(=S)NC(=O)C1=Cc1ccc(O)cc1O` showed a melting point greater than 300 °C.
Compound `[H]/N=C1/NC(=O)C(=Cc2ccc(OC)c(OC)c2)S1` [Compound 117, (Z)-5-(3,4-dimethoxybenzylidene)-2-iminothiazolidin-4-one] has a melting point of 274.2 to 276.3 °C.
`[H]/N=C1/NC(=O)C(=Cc2cc(O)cc(O)c2)S1` [Compound 118, (Z)-5-(3,5-dihydroxybenzylidene)-2-iminothiazolidin-4-one] gave a melting point greater than 300 °C.
For `COc1ccc(C=C2C(=O)NC(=O)NC2=O)cc1O`, the melting point was 279.3 to 281.4 °C.
`[H]/N=C1/NC(=O)C(=Cc2cc(OC)c(O)c(OC)c2)S1` [Compound 122, (Z)-5-(4-hydroxy-3,5-dimethoxybenzylidene)-2-iminothiazolidin-4-one] gave a melting point of 254.3 to 256.6 °C.
`COc1ccc(/C=C2\SC(=S)NC2=O)c(OC)c1` [Compound 70, (Z)-5-(2,4-dimethoxybenzylidene)-2-thioxothiazolidin-4-one] showed a melting point of 272.7 to 275.2 °C.
Work on `COc1ccc(C=C2C(=O)NC(=S)NC2=O)c(OC)c1` yielded a melting point of 294.1 to 295.4 °C.
In the case of `COc1ccc(/C=C2\SC(=O)NC2=O)cc1O` [Compound 6, (Z)-5-(3-hydroxy-4-methoxybenzylidene)thiazolidine-2,4-dione], the tyrosinase inhibitory activities [1] is reported as “better tyrosinase inhibitory activities than a kojic acid” and the melting point is reported as 254 to 257.6 °C.
